In US8889671B2, “Compounds and methods for treating bacterial infections” (AstraZeneca AB, priority 2013, dated 2014):
≈ marks a conversion by molar mass, not a printed value. Where two headings read alike, the source gives them in different places.

Columns and labels:
[1] = system: Klebsiella pneumoniae; experiment: Susceptibility testing (MIC) Assay 2, broth microdilution; format: cell-based; conditions: clinical isolate, mucoid, read-out: Kpn MIC
Procedure: (§1) Minimum Inhibitory Concentrations (MICs) were determined by the broth microdilution method in accordance with the Clinical and Laboratory Standards Institute (CLSI) guidelines. In brief, organism suspensions were adjusted to a 0.5 McFarland standard to yield a final inoculum between 3×10^5 and 7×10^5 colony-forming units (CFU)/mL. Bacterial inocula were generally prepared in sterile, cation adjusted Mueller-Hinton Broth (Becton Dickinson) which included Escherichia coli, Klebsiella pneumoniae, and Pseudomonas aeruginosa. Haemophilus influenzae bacterial inocula were prepared in sterile, cation adjusted Mueller-Hinton Broth (Becton Dickinson) containing 0.5% yeast extract (Becton Dickinson) plus 30 mL of 15 μg/mL Bovine Hematin stock (Sigma), and 3 mL of 15 μg/mL β-nicotinamide adenine dinucleotide (Sigma). Strains of Neisseria were tested for MICs using agar dilution methodology in accordance with CLSI guidelines. For broth microdilution testing, an inoculum volume of 100 μL was added to wells (using a Tecan EVO robot) containing 2 μL of DMSO containing 2-fold serial dilutions of drug. All inoculated microdilution panels were incubated in ambient air at 35° C. for 18-24 hours. Following incubation, the lowest concentration of the drug that prevented visible growth as read at OD600 nm and confirmed by a visual read using a test reading mirror was recorded as the MIC. Performance of the assay was monitored by the use of laboratory quality-control strains and commercially available control compounds with defined MIC spectrums, in accordance with CLSI guidelines. Table 3 provides the MIC results (μM) of Examples 1-77 tested in Assay 2. Table 4 provides the MIC (μg/mL) results of Examples 78-80 tested in Assay 2.

[2] = system: Pseudomonas aeruginosa; experiment: as above; format: cell-based; conditions: PAO1, read-out: Pae MIC
Procedure: as §1

[3] = system: Haemophilus influenzae; experiment: as above; format: cell-based; conditions: ATCC51907, Haemophilus influenzae, ATCC 51907, in vivo strain, read-out: Hin MIC
Procedure: as §1

[4] = system: Escherichia coli; experiment: as above; format: cell-based; conditions: K12, read-out: Eco MIC
Procedure: as §1

[5] = system: Streptococcus pneumoniae; experiment: Susceptibility testing (MIC) Assay 1, broth microdilution; format: cell-based
Procedure: (§2) Minimum Inhibitory Concentrations (MICs) were determined by the broth microdilution method in accordance with the Clinical and Laboratory Standards Institute (CLSI) guidelines. In brief, organism suspensions were adjusted to a 0.5 McFarland standard to yield a final inoculum between 3×10^5 and 7×10^5 colony-forming units (CFU)/mL. Bacterial inocula were prepared for most organisms in sterile, cation adjusted Mueller-Hinton Broth (Beckton Dickinson). The streptococci were prepared as above in cation adjusted Mueller-Hinton Broth to which 2.5% lysed horse blood (Hema Resource & Supply Inc.) was added. An inoculum volume of 100 μL was added to wells (using a Tecan EVO robot) containing 2 μL of DMSO containing 2-fold serial dilutions of drug. All inoculated microdilution trays were incubated in ambient air at 35° C. for 18-24 hours. Following incubation, the lowest concentration of the drug that prevented visible growth as read at OD600 nm and confirmed by a visual read using a test reading mirror was recorded as the MIC. Performance of the assay was monitored by the use of laboratory quality-control strains and commercially available control compounds with defined MIC spectrums, in accordance with CLSI guidelines. Table 1 provides the MIC results (μM) of Examples 1-77 tested in Assay 1. Table 2 provides the MIC (μg/mL) results of Examples 78-80 tested in Assay 1.

[6] = system: Streptococcus pyogenes; experiment: as above; format: cell-based; conditions: Streptococcus pyogenes, Streptococcus pyrgenes, in vivo strain; read-out: Spy MIC
Procedure: as §2

[7] = system: Staphylococcus aureus; experiment: as above; format: cell-based; conditions: Staphylococcus aureus
Procedure: as §2

[8] = biological target: Escherichia coli DNA gyrase A/B tetramer (Escherichia coli (strain K12), UniProt P0AES4+P0AES6); experiment: DNA gyrase supercoiling activity fluorescence polarisation assay; format: biochemical; conditions: Eco Gyr FP Mean IC50, E. coli DNA gyrase supercoiling, 0.3 mM ATP
Procedure: In a black, 384-well polystyrene assay plate, 30 microliters/well of 5 nM Escherichia coli DNA gyrase A/B tetramer and 130 micrograms/mL of topologically relaxed plasmid containing the triplex-forming sequence
in an assay buffer consisting of 35 mM Tris-HCl (pH 7.5), 24 mM KCl, 4 mM MgCl2, 2 mM dithiothreitol, 1.8 mM spermidine, 5% (v/v) glycerol, 200 nM bovine serum albumin, 0.8% dimethylsulfoxide, and 0.3 mM ATP were incubated at ambient temperature for (typically 30 minutes) in the absence or presence of 5-10 different concentrations of test compound. The supercoiling reactions were quenched by the addition of 10 microliters/well of 40 nM oligodeoxynucleotide probe in 3× triplex-forming buffer consisting of 150 mM NaCl, and 150 mM sodium acetate at pH 3.5. The oligodeoxynucleotide probe was 5′-BODIPY-FL-labeled
After 60 minutes, the fluorescence anisotropy of the BODIPY-FL was measured in a Tecan Ultra plate reader, using 485 nm excitation and 535 nm emission filters equipped with polarizers. The IC50 was determined by nonlinear regression using two control reactions.

[9] = in vivo strain (footnote b), read-out: Spn(b) MIC
[10] = in vivo strain (footnote c), read-out: Spn(c) MIC
[11] = Staphylococcus aureus in vivo strain, MSQS, read-out: Sau(d) MIC
[12] = in vivo strain, MRQR, read-out: Sau(e) MIC

| SMILES | MIC [1] [µM] | MIC [2] [µM] | MIC [3] [µM] | MIC [4] [µM] | MIC [5, 9] [µM] | MIC [5, 10] [µM] | MIC [6] [µM] | MIC [7, 11] [µM] | MIC [7, 12] [µM] | MIC ([7]; serum, read-out: Sau(f) MIC) [µM] | IC50 [8] [nM] |
| --- | --- | --- | --- | --- | --- | --- | --- | --- | --- | --- | --- |
| COC[C@H]1CN(c2noc3c(Cl)c4c(cc23)CC2(C(=O)NC(=O)NC2=O)[C@H]2[C@H](C)O[C@H](C)CN42)C(=O)O1 [Example 21, (2R,4S,4aS)-11-Chloro-8-[(5R)-4-(methoxymethyl)-2-oxo-1,3-oxazolidin-3-yl]-2,4-dimethyl-1,2,4,4a-tetrahydro-2′H,6H-spiro[1,4-oxazino[4,3-a][1,2]oxazolo[4,5-g]quinoline-5,5′-pyrimidine]-2′,4′,6′(1′H,3′H)-trione] | 200 (≈ 107 µg/mL) | > 200 | 1.6 (≈ 0.854 µg/mL) | 50 (≈ 26.7 µg/mL) | 1.6 (≈ 0.854 µg/mL) | 1.6 (≈ 0.854 µg/mL) | 0.78 (≈ 0.416 µg/mL) | 0.78 (≈ 0.416 µg/mL) | 3.1 (≈ 1.66 µg/mL) | 3.1 (≈ 1.66 µg/mL) | 540 |
| C[C@@H]1CN(c2noc3c(Cl)c4c(cc23)CC2(C(=O)NC(=O)NC2=O)[C@H]2[C@H](C)O[C@H](C)CN42)C(=O)O1 [Example 22] | 200 (≈ 101 µg/mL) | > 200 | 0.78 (≈ 0.393 µg/mL) | 12 (≈ 6.05 µg/mL) | 0.39 (≈ 0.197 µg/mL) | 0.39 (≈ 0.197 µg/mL) | 0.39 (≈ 0.197 µg/mL) | < 0.2 | 0.78 (≈ 0.393 µg/mL) | 0.78 (≈ 0.393 µg/mL) | 210 |
| C[C@@H]1CN2c3c(cc4c(N5C(=O)O[C@H](C)[C@@H]5C)noc4c3F)CC3(C(=O)NC(=O)NC3=O)[C@H]2[C@H](C)O1 [Example 23] | 100 (≈ 50.1 µg/mL) | > 200 | 0.39 (≈ 0.196 µg/mL) | 6.2 (≈ 3.11 µg/mL) | 0.78 (≈ 0.391 µg/mL) | 0.78 (≈ 0.391 µg/mL) | 0.39 (≈ 0.196 µg/mL) | 0.39 (≈ 0.196 µg/mL) | 0.78 (≈ 0.391 µg/mL) | 0.78 (≈ 0.391 µg/mL) | 520 |
| C[C@@H]1CN2c3c(cc4c(N5C(=O)O[C@@H](C)[C@H]5C)noc4c3F)CC3(C(=O)NC(=O)NC3=O)[C@H]2[C@H](C)O1 [Example 24] | > 200 | > 200 | 3.1 (≈ 1.55 µg/mL) | 50 (≈ 25.1 µg/mL) | 1.6 (≈ 0.802 µg/mL) | 1.6 (≈ 0.802 µg/mL) | 0.78 (≈ 0.391 µg/mL) | 0.39 (≈ 0.196 µg/mL) | 1.6 (≈ 0.802 µg/mL) | 1.6 (≈ 0.802 µg/mL) | > 2100 |
| C=CC[C@H]1COC(=O)N1c1noc2c(F)c3c(cc12)CC1(C(=O)NC(=O)NC1=O)[C@H]1[C@H](C)O[C@H](C)CN31 [Example 25, (2R,4S,4aS)-8-((S)-4-Allyl-2-oxooxazolidin-3-yl)-11-fluoro-2,4-dimethyl-2,4,4a,6-tetrahydro-1H,1′H-spiro[isoxazolo[4,5-g][1,4]oxazino[4,3-a]quinoline-5,5′-pyrimidine]-2′,4′,6′(3′H)-trione] | 200 (≈ 103 µg/mL) | > 200 | 0.78 (≈ 0.401 µg/mL) | 12 (≈ 6.16 µg/mL) | 0.78 (≈ 0.401 µg/mL) | 0.78 (≈ 0.401 µg/mL) | 0.78 (≈ 0.401 µg/mL) | 0.39 (≈ 0.2 µg/mL) | 0.39 (≈ 0.2 µg/mL) | 1.6 (≈ 0.822 µg/mL) | 260 |
